In US8008540B2, “Transgenic non-human animal for use in research models for studying Parkinson's disease” (Kampavata AB, priority 2004, dated 2011):
Entries after “also recorded” stand apart in the source; their conditions may differ.

Test system: homozygous knockout mice (+/DAT-cre; Tfam^loxP/Tfam^loxP)
Test: L-DOPA treatment, open field activity cages (locomotion and rearing)
Format: in vivo, mouse
Description: Open field activity was examined in automated activity cages. This consisted of Plexiglas boxes (35×35×18 cm) with a lower and a higher row of infrared sensitive photocells and a microcomputer registering interruption of photocell beams. Animals were tested during the light phase of the light-dark cycle, between 9:00 and 13:00 h. Locomotor activity was registered when animals interrupted the lower row of photocells and rearing was registered when the higher row was interrupted. Animals were individually placed gently in the open field arena and remained there during 60 min. Locomotion and rearing counts were registered every 10 min. For the L-DOPA treatment, spontaneous locomotion and rearing were measured in activity cages as above. Animals were then given i.p. injections of L-DOPA combined with the peripheral dopa decarboxylase inhibitor benzerazide (Madopark 20 mg/kg in PBS; Roche) or PBS and were then immediately put back into the activity cages for another 60 minutes of recording. The scoring of counts was given as mean+/−SEM. Statistical significance was tested using 2-way ANOVA analysis. The open field box was cleaned with 70% alcohol after each test.

[1] = 20 and 30 week old homozygous knockout mice, L-DOPA 20 mg/kg i.p. vs saline, 60 min recording

N[C@@H](Cc1ccc(O)c(O)c1)C(=O)O [L-DOPA]
motor performance (20 and 30 week old homozygous knockout mice): improved motor performance
locomotion [1]: increased locomotion
rearing [1]: increase in rearing was similar; also recorded: increase of rearing
progressive movement disorder (Parkinson mouse model, L-DOPA treatment): partially reversed
locomotor response, course over time (older (30 week old) homozygous knockout mice): abruptly terminated
locomotion response, younger vs older mice (younger (20 week old) homozygous knockout mice, identical L-DOPA dose): more pronounced and longer lasting locomotion response; also recorded: greater locomotion response
